# Measurements reported in patent US8093256B2, “Use of 8-substituted-6,7,8,9-tetrahydropyrimido[1,2-a] pyrimidin-4-one derivatives” (Sanofi-Aventis, priority 2003, dated 2012).
# Counter-ions that a name gives are not always drawn.
# What was measured:
# [1] = biological target: GSK3β (Homo sapiens, UniProt P49841); assay: Inhibitory activity against GSK3β (33P-ATP phosphorylation of prephosphorylated GS1 peptide, two protocols); type: biochemical
# Protocol: Inhibitory Activity of the Medicament of the Present Invention Against GSK3β Two different protocols can be used. In a first protocol: 7.5 μM of prephosphorylated GS1 peptide and 10 μM ATP (containing 300,000 cpm of 33P-ATP) were incubated in 25 mM Tris-HCl, pH 7.5, 0.6 mM DTT, 6 mM MgCl2, 0.6 mM EGTA, 0.05 mg/ml BSA buffer for 1 hour at room temperature in the presence of GSK3beta (total reaction volume: 100 microliters). In a second protocol: 4.1 μM of prephosphorylated GS1 peptide and 42 μM ATP (containing 260,000 cpm 33P-ATP) were incubated in 80 mM Mes-NaOH, pH 6.5, 1 mM Mg acetate, 0.5 mM EGTA, 5 mM 2-mercaptoethanol, 0.02% Tween 20, 10% glycerol buffer for 2 hours at room temperature in the presence of GSK3beta. Inhibitors were solubilized in DMSO (final solvent concentration in the reaction medium, 1%). The reaction was stopped with 100 microliters of a solution made of 25 g polyphosphoric acid (85% P2O5), 126 ml 85% H3PO4, H2O to 500 ml and then diluted to 1:100 before use. An aliquot of the reaction mixture was then transferred to Whatman P81 cation exchange filters and rinsed with the solution described above. Incorporated 33P radioactivity was determined by liquid scintillation spectrometry. The phosphorylated GS-1 peptide had the following sequence: NH2-[…](P)EDEE-COOH.
# Chain of GSK3β (P49841 whole entry, species assumed): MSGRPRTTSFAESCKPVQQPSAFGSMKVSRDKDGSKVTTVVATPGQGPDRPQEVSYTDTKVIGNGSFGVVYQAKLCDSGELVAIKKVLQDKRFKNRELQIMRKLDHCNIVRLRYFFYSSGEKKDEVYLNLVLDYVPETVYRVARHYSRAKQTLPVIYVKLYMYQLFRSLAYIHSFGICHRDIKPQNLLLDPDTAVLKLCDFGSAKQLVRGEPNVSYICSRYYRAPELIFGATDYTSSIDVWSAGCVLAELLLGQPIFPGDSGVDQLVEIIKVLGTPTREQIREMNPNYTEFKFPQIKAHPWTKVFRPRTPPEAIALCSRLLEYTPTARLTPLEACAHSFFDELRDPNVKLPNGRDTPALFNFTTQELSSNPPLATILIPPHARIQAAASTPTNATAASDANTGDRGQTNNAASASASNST
SMILES,melting point,IC50 [1]
"O=c1cc(-c2ccncc2)nc2n1CCC(c1ccccc1)N2CC(O)c1ccc(-c2ccccc2)cc1 (stereo not shown) [compound 27, 9-[2-Hydroxy-2-(4-phenyl-phenyl)-ethyl]-8-phenyl-2-pyridin-4-yl-6,7,8,9-tetrahydro-pyrimido[1,2-a]pyrimidin-4-one]",145 to 147 °C,
"O=c1cc(-c2ccncc2)nc2n1CCC(c1ccncc1)N2CC(O)c1cccc(F)c1 (stereo not shown) [compound 25, 9-[2-(3-Fluoro-phenyl)-2-hydroxy-ethyl]-2,8-dipyridin-4-yl-6,7,8,9-tetrahydro-pyrimido[1,2-a]pyrimidin-4-one]",218 to 220 °C,
"O=c1cc(-c2ccncc2)nc2n1CCC(c1ccccc1)N2CC(O)c1ccc2ccccc2c1 (stereo not shown) [compound 28, 9-[2-Hydroxy-2-naphthalen-2-yl-ethyl]-8-phenyl-2-pyridin-4-yl-6,7,8,9-tetrahydro-pyrimido[1,2-a]pyrimidin-4-one]",190 to 192 °C,
"O=c1cc(-c2ccncc2)nc2n1CCC(c1ccccc1)N2CC(O)c1ccc(Cl)cc1 (stereo not shown) [compound 24, 9-[2-Hydroxy-2-(4-chloro-phenyl)-ethyl]-8-phenyl-2-pyridin-4-yl-6,7,8,9-tetrahydro-pyrimido[1,2-a]pyrimidin-4-one]",220 to 222 °C,
"O=c1cc(-c2ccncc2)nc2n1CCC(c1ccccc1)N2CC(O)c1ccc(F)cc1 (stereo not shown) [compound 26, 9-[2-Hydroxy-2-(4-fluoro-phenyl)-ethyl]-8-phenyl-2-pyridin-4-yl-6,7,8,9-tetrahydro-pyrimido[1,2-a]pyrimidin-4-one]",201 to 203 °C,
"O=C(CN1c2nc(-c3ccncc3)cc(=O)n2CCC1c1ccncc1)c1cccc(Br)c1 (stereo not shown) [Compound No. 15, 9-[2-(3-Bromo-phenyl)-2-oxo-ethyl]-2,8-dipyridin-4-yl-6,7,8,9-tetrahydro-pyrimido[1,2-a]pyrimidin-4-one hydrochloride (1:2)]",,7 nM
"O=c1cc(-c2ccncc2)nc2n1CCC(c1ccccc1)N2CC(O)c1cccc(Br)c1 (stereo not shown) [compound 23, 9-[2-Hydroxy-2-(3-bromo-phenyl)-ethyl]-8-phenyl-2-pyridin-4-yl-6,7,8,9-tetrahydro-pyrimido[1,2-a]pyrimidin-4-one]",170 to 172 °C,
